Literature values as cited in patent EP0622459A1, “Fused proteins for preparing vasoactive intestinal polypeptide analogs, method of preparing same and recombinant plasmids and transformant microorganisms” (SANWA KAGAKU KENKYUSHO CO., LTD., priority 1993, dated 1994).
Ends that are not written are not given here.

Details: prior-art analogs, result in words

Leu¹⁷-VIP-OH: genetically engineered VIP analog of the prior art (JP-A-1-296996 and JP-A-3-280893) (HSDAVFTDNYTRLRKQLAVKKYLNSILN-OH; UniProt P01282 125-152, looked up, variant M17L)
biological activity compared with VIP: only comparable to naturally occurring VIP
